The structures appear in SMILES notation. A value given as a limit tells only on which side of the number the result lay.

One assay deals with U937 cells. Put plainly: Inhibition rate of compound (1 μM) on necroptosis of U937 cells (TSZ-induced, CellTiter-Glo). Format: cell-based. The following applies: TSZ (hTNF-α, SM-164, Z-VAD-FMK) 20 hours. The procedure, abridged:
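U937 cells were pretreated 15 min with compound, then necroptosis was triggered with TSZ (Z-VAD-FMK, hTNF-α, SM-164) for 20 h at 37° C. Viability was read as ATP by CellTiter-Glo luminescence, and inhibition (%) was taken relative to no-TSZ and TSZ-only wells.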
For orientation: In ATP-based viability assays light output follows the ATP content of the culture.

For the next assay, the target named is T1, RIPK1 kinase (Homo sapiens, UniProt Q13546).
T1 construct: purchased Promega VA7593
T1 sequence (Q13546 1-671): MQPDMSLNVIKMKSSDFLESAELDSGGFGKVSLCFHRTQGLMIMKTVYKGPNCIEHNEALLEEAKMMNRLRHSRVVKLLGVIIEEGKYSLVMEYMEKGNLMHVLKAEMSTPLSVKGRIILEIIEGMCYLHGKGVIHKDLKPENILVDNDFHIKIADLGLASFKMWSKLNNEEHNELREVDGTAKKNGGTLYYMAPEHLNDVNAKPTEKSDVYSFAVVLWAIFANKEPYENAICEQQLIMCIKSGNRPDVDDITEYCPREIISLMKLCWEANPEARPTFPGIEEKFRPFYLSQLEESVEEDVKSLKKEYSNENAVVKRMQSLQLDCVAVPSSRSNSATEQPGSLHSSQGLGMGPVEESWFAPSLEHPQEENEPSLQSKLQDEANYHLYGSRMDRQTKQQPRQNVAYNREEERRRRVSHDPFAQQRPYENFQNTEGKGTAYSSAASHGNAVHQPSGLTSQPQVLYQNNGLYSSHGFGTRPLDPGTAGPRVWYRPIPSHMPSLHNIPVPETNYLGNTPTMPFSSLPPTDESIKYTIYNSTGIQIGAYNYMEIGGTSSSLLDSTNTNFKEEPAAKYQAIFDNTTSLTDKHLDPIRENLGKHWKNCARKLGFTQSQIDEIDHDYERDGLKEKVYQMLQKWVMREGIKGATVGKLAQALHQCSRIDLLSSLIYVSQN
The assay can be described thus: In vitro RIPK1 kinase activity assay (ADP-Glo), inhibition by compounds at 1 μM. Format: biochemical. The note with it: compound 1 μM; ATP 10 μM; MBP substrate 100 μg/mL; read-out: RIPK1 kinase activity inhibition rate range. In outline: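 Compound and RIPK1 were preincubated 15 min at room temperature, then reacted 1 h with 10 μM ATP and 100 μg/mL MBP substrate in kinase buffer D. ADP formed was measured by ADP-Glo luminescence and converted to percent inhibition of kinase activity.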

As to `CN1C(=O)[C@@H](NC(=O)C(=O)NCCc2cccc(F)c2)COc2ccc(C#CCN3CC[C@@H](O)C3)cc21` [Example 114, N^1-(3-fluorophenethyl)-N^2-((S)-7-(3-((R)-3-hydroxypyrrolidin-1-yl)prop-1-yn-1-yl)-5-methyl-4-oxo-2,3,4,5-tetrahydrobenzo[b][1,4]oxazepin-3-yl)oxalamide], the “Inhibition rate range of compounds (1 μM) on U937 cell necroptosis” value (from here on “Inhibition rate range of compounds”) in the assay with U937 cells is recorded as “A (A: ≥90%)”. Besides, the inhibition (usually the drop in the measured response relative to a control, in per cent) at 1 µM on RIPK1 kinase was no less than 75%.

`CN1C(=O)[C@@H](NC(=O)C(=O)NCCc2cccc(F)c2)COc2ccc(C#CCN3CC[C@H](O)C3)cc21` [Example 115, N^1-(3-fluorophenethyl)-N^2-((S)-7-(3-((S)-3-hydroxypyrrolidin-1-yl)prop-1-yn-1-yl)-5-methyl-4-oxo-2,3,4,5-tetrahydrobenzo[b][1,4]oxazepin-3-yl)oxalamide]: the “Inhibition rate range of compounds” value with U937 cells is “A (A: ≥90%)”. Further, the inhibition at 1 µM on RIPK1 kinase was in the range of 50 to 74%.

`CN1C(=O)[C@@H](NC(=O)C(=O)NCCc2cccc(F)c2)COc2ccc(C#Cc3cccnc3)cc21` [Example 117, (S)—N^1-(3-fluorophenethyl)-N^2-(5-methyl-4-oxo-7-(pyridin-3-ylethynyl)-2,3,4,5-tetrahydrobenzo[b][1,4]oxazepin-3-yl)oxalamide]: in the assay with U937 cells, the “Inhibition rate range of compounds” value is “A (A: ≥90%)”. At RIPK1 kinase, the inhibition at 1 µM was in the range of 50 to 74%.

On to `CN1C(=O)[C@@H](NC(=O)C(=O)NCCc2cccc(F)c2)COc2ccc(C#CCN3CCC(=O)CC3)cc21` [Example 118, (S)—N^1-(3-fluorophenethyl)-N^2-(5-methyl-4-oxo-7-(3-(4-oxopiperidin-1-yl)prop-1-yn-1-yl)-2,3,4,5-tetrahydrobenzo[b][1,4]oxazepin-3-yl)oxalamide], for which the “Inhibition rate range of compounds” value in the assay on U937 cells is “A (A: ≥90%)”. In addition, the inhibition at 1 µM at RIPK1 kinase was no less than 75%.

For `CN1C(=O)[C@@H](NC(=O)C(=O)NCCc2cccc(F)c2)COc2ccc(C#CCN3CCOCC3)cc21` [Example 120, (S)—N^1-(3-fluorophenethyl)-N^2-(5-methyl-7-(3-morpholinoprop-1-yn-1-yl)-4-oxo-2,3,4,5-tetrahydrobenzo[b][1,4]oxazepin-3-yl)oxalamide], in the assay with U937 cells, the “Inhibition rate range of compounds” value is given as “A (A: ≥90%)”. In addition, on RIPK1 kinase, the inhibition at 1 µM was no less than 75%.

As for `CN1C(=O)[C@@H](NC(=O)C(=O)NCCc2cccc(F)c2)COc2ccc(C#CCN3C(=O)CCC3=O)cc21` [Example 122, (S)—N^1-(7-(3-(2,5-dioxopyrrolidin-1-yl)prop-1-yn-1-yl)-5-methyl-4-oxo-2,3,4,5-tetrahydrobenzo[b][1,4]oxazepin-3-yl)-N^2-(3-fluorophenethyl)oxalamide], the “Inhibition rate range of compounds” value in the assay with U937 cells is “A (A: ≥90%)”. For the same compound, the inhibition at 1 µM at RIPK1 kinase was no less than 75%.

In the case of `CN1C(=O)[C@@H](NC(=O)C(=O)NCCc2cccc(F)c2)COc2ccc(C#CCN3CCNC(=O)C3)cc21` [Example 123, (S)—N^1-(3-fluorophenethyl)-N^2-(5-methyl-4-oxo-7-(3-(3-oxopiperazin-1-yl)prop-1-yn-1-yl)-2,3,4,5-tetrahydrobenzo[b][1,4]oxazepin-3-yl)oxalamide], in the assay on U937 cells, the “Inhibition rate range of compounds” value was “B (B: 50-89%)”. Further, the inhibition at 1 µM at RIPK1 kinase was in the range of 50 to 74%.

As to `C[C@@H](NC(=O)C(=O)N[C@H]1COc2ccc(C#CCN3CC[C@@H](O)C3)cc2N(C)C1=O)c1ccccc1` [Example 128, N^1-((S)-7-(3-((R)-3-hydroxypyrrolidin-1-yl)prop-1-yn-1-yl)-5-methyl-4-oxo-2,3,4,5-tetrahydrobenzo[b][1,4]oxazepin-3-yl)-N^2-((R)-1-phenylethyl)oxalamide], the “Inhibition rate range of compounds” value in the assay on U937 cells is recorded as “B (B: 50-89%)”. Further, the inhibition at 1 µM on RIPK1 kinase was no less than 75%.

As for `C[C@@H](NC(=O)C(=O)N[C@H]1COc2ccc(C#CCN3CC[C@H](O)C3)cc2N(C)C1=O)c1ccccc1` [Example 130, N^1-((S)-7-(3-((S)-3-hydroxypyrrolidin-1-yl)prop-1-yn-1-yl)-5-methyl-4-oxo-2,3,4,5-tetrahydrobenzo[b][1,4]oxazepin-3-yl)-N^2-((R)-1-phenylethyl)oxalamide], in the assay on U937 cells, the “Inhibition rate range of compounds” value is given as “A (A: ≥90%)”. Moreover, the inhibition at 1 µM at RIPK1 kinase was no less than 75%.

As for `C[C@@H](NC(=O)C(=O)N[C@H]1COc2ccc(C#CC3(O)COC3)cc2N(C)C1=O)c1ccccc1` [Example 132, N^1-((S)-7-((3-hydroxyoxetan-3-yl)ethynyl)-5-methyl-4-oxo-2,3,4,5-tetrahydrobenzo[b][1,4]oxazepin-3-yl)-N^2-((R)-1-phenylethyl)oxalamide], the “Inhibition rate range of compounds” value in the assay with U937 cells was “A (A: ≥90%)”. Moreover, the inhibition at 1 µM at RIPK1 kinase lay in the range of 50 to 74%.

Turning to `C[C@@H](NC(=O)C(=O)N[C@H]1COc2ccc(C#CC3CCN(CC#N)CC3)cc2N(C)C1=O)c1ccccc1` [Example 137, N^1-((S)-7-((1-(cyanomethyl)piperidin-4-yl)ethynyl)-5-methyl-4-oxo-2,3,4,5-tetrahydrobenzo[b][1, 4]oxazepin-3-yl)-N^2-((R)-1-phenylethyl)oxalamide], the “Inhibition rate range of compounds” value in the assay on U937 cells was “A (A: ≥90%)”. Besides, the inhibition at 1 µM on RIPK1 kinase was no less than 75%.

As to `C[C@@H](NC(=O)C(=O)N[C@H]1COc2ccc(C#CCN3CCC(O)CC3)cc2N(C)C1=O)c1ccccc1` [Example 138, N^1-((S)-7-(3-(4-hydroxypiperidin-1-yl)prop-1-yn-1-yl)-5-methyl-4-oxo-2,3,4,5-tetrahydrobenzo[b][1,4]oxazepin-3-yl)-N^2-((R)-1-phenylethyl)oxalamide], in the assay on U937 cells, the “Inhibition rate range of compounds” value is “A (A: ≥90%)”. Further, at RIPK1 kinase, the inhibition at 1 µM is no less than 75%.

As for `C[C@@H](NC(=O)C(=O)N[C@H]1COc2ccc(C#CCN3CCC(=O)CC3)cc2N(C)C1=O)c1ccccc1` [Example 139, N^1-((S)-5-methyl-4-oxo-7-(3-(4-oxopiperidin-1-yl)prop-1-yn-1-yl)-2,3,4,5-tetrahydrobenzo[b][1, 4]oxazepin-3-yl)-N^2-((R)-1-phenylethyl)oxalamide], in the assay with U937 cells, the “Inhibition rate range of compounds” value was “B (B: 50-89%)”. Further, the inhibition at 1 µM on RIPK1 kinase was no less than 75%.

With `C[C@@H](NC(=O)C(=O)N[C@H]1COc2ccc(C#CCN3CCOCC3)cc2N(C)C1=O)c1ccccc1` [Example 140, N^1-((S)-5-methyl-7-(3-morpholinoprop-1-yn-1-yl)-4-oxo-2,3,4,5-tetrahydrobenzo[b][1,4]oxazepin-3-yl)-N^2-((R)-1-phenylethyl)oxalamide], the “Inhibition rate range of compounds” value in the assay with U937 cells is “A (A: ≥90%)”. At RIPK1 kinase, the inhibition at 1 µM was no less than 75%.

Regarding `C[C@@H](NC(=O)C(=O)N[C@H]1COc2ccc(C#CCN3C(=O)CCC3=O)cc2N(C)C1=O)c1ccccc1` [Example 144, N^1-((S)-7-(3-(2,5-dioxopyrrolidin-1-yl)prop-1-yn-1-yl)-5-methyl-4-oxo-2,3,4,5-tetrahydrobenzo[b][1,4]oxazepin-3-yl)-N^2-((R)-1-phenylethyl)oxalamide], the “Inhibition rate range of compounds” value in the assay on U937 cells is listed as “A (A: ≥90%)”. The inhibition at 1 µM at RIPK1 kinase is no less than 75%.

Consider `C[C@@H](NC(=O)C(=O)N[C@H]1COc2ccc(C#CCN3CCNC(=O)C3)cc2N(C)C1=O)c1ccccc1` [Example 145, N^1-((S)-5-methyl-4-oxo-7-(3-(3-oxopiperazin-1-yl)prop-1-yn-1-yl)-2,3,4,5-tetrahydrobenzo[b][1, 4]oxazepin-3-yl)-N^2-((R)-1-phenylethyl)oxalamide], for which the “Inhibition rate range of compounds” value in the assay with U937 cells is “A (A: ≥90%)”. Further, the inhibition at 1 µM on RIPK1 kinase was no less than 75%.

These data come from patent publication US20250368633A1, “AZEPINE FUSED RING COMPOUND AS RIPK1 INHIBITOR AND USE THEREOF” (ARTIVILA BIOPHARMA, priority 2022, published 2025).
